Entries after “also recorded” stand apart in the source; their conditions may differ.
Assays:
myosin = conditions: Table 5 listing; cited from earlier work
[1] = test system: PKD1−/− and PKD2−/− mutant organoids; test: Prophylactic effect of myosin activators on cyst formation in PKD organoids in suspension; type: cell-based, human
Description: (§1) Cyst formation. In adherent cultures (untreated), ‘cysts’ were identified as large, balloon-like, translucent structures that swayed in response to agitation. Flat rings and dilated tubules were not counted as cysts and occasionally appeared even in non-PKD controls. […] Wells were imaged using a Nikon TiE inverted wide-field microscope and cysts were quantified using ImageJ cell counter. To generate large cysts in suspension, adherent organoids were microdissected with a 23-gauge syringe needle from 24-well plates on an inverted phase-contrast microscope, and carefully transferred using a transfer pipette into a low-adhesion 6-well plate (Corning) containing 2 ml RB. The organoids were isolated on the twenty-first day of differentiation, before cysts formed. RB media was changed by gravity every three days, and cystogenesis was assessed at two weeks after replating.
EMD was efficient at rescuing cyst formation at the lowest dose tested (3 μM) and worked in both PKD1^−/− and PKD2^−/− mutant organoids.

[2] = test system: PKD organoids or isogenic controls; test: Cyst formation in adherent kidney organoids treated with forskolin or 8-Br-cAMP; type: cell-based, human
Description: as §1

[3] = test system: Polycystic Kidney Disease (PKD) patients; conditions: cited from earlier work
[4] = test system: endothelial cells (ECs) in kidney organoid cultures
Description: Kidney differentiation in microwell plates. hPSCs were dissociated with Accutase (Stem Cell Technologies) and plated onto microwell plates pre-coated with GelTrex in mTeSR1 supplemented with 10 mMRho-kinase inhibitor Y27632 (StemGent). The media was replaced with mTeSR1+1.5% GelTrex at 16 hours, 12 mMCHIR99021 in Advanced RPMI+Glutamax (Life Technologies) at 60 hours, and RB (Advanced RPMI+Glutamax+B27 Supplement, from Life Technologies) at 96 hours. […] RB was changed two days later and every three days thereafter. For experiments involving modulation of endothelial cell media was supplemented with VEGF165 (Peprotech, 12.5 to 200 ng/ml). Alternatively (Protocol B, FIG. 31A), the protocol described by Takasato et al. was adapted for adherent culture: undifferentiated hPSCs were plated overnight and treated the following morning with 8 mM CHIR99021 in APEL media (StemCell Technologies) for 48-72 hr, 30 ng/ml FGF9 (Peprotech)+1 mg/ml heparin (StemCellTechnologies) in APEL for 96 hr, and cultured thereafter in APEL, replaced every three days. Alternatively, to generate endothelial cells without kidney organoids, 100,000 hPSCs/cm2 were plated in mTeSR1+10 mM Y27632+1 mM CHIR99021, replaced with RPMI+B27 minus insulin+1.5% Geltrex+50 ng/mL Activin A (R&D) at 24 h, RPMI+B27 minus insulin+40 ng/mL BMP4 (Peprotech)+1 mL CHIR99021 at 61 h, and StemPro 34 (Thermo Fisher Scientific)+2 mM Glutamax+50 mg/mL ascorbic acid (Sigma)+10 ng/mL BMP4+5 ng/mL bFGF (Peprotech)+300 ng/mL VEGF165 at 85 h for a 72-hour incubation.
Immunohistochemistry. For confocal microscopy, kidney organoids were differentiated on 96-well No, 1.5 coverslip glass-bottom plates (Mat-Tek). To fix, an equal volume of 8% paraformaldehyde (Electron Microscopy Sciences) was added to the culture media (4% final concentration) for 15 minutes at room temperature. […] Fluorescence images were captured using an inverted Nikon epifluorescence Eclipse Ti or A1R confocal microscope. […]

[5] = scRNA-seq, in the presence of VEGF

Molecule: N#C/C(=C\c1cc(O)c(O)c(O)c1)C(=O)NCCCNC(=O)/C(C#N)=C/c1cc(O)c(O)c(O)c1 [Bis-T-23]
- effect (myosin): ↑ actin polymerization

Molecule: COC(=O)N1CCN(Cc2cccc(NC(=O)Nc3ccc(C)nc3)c2F)CC1 [omecamtiv mercabil]
- effect on PKD organoid cysts [1]: the same effect is not seem; also recorded: do not affect PKD cysts
- effect on cyst growth in PKD1−/− organoids ([1]; 20 μM, highest dose tried (FIG. 22)): ineffective at the highest dose that was tried
- effect (myosin): ↑ cardiac myosin S1

Molecule: C[C@@H](O)[C@@H]1NC(=O)[C@H](CCCCN)NC(=O)[C@@H](Cc2c[nH]c3ccccc23)NC(=O)[C@H](Cc2ccccc2)NC(=O)[C@@H](NC(=O)[C@H](N)Cc2ccccc2)CSSC[C@@H](C(=O)N[C@H](CO)[C@@H](C)O)NC1=O [octreotide]
- effect on PKD organoid cysts [1]: the same effect is not seem; also recorded: do not affect PKD cysts

Molecule: Nc1ncnc2c1nc(Br)n2[C@@H]1O[C@@H]2COP(=O)(O)O[C@H]2[C@H]1O [8-Br-cAMP]
- doses that did not produce cysts ([2]; PKD or control organoids, adherent): < 1 mM
- swelling of adherent organoids into cyst-like structures ([2]; adherent cultures, added on day 21 of differentiation): induced swelling, although the effect was much less pronounced

Molecule: Cc1ccccc1C(=O)Nc1ccc(C(=O)N2CCCC(O)c3cc(Cl)ccc32)c(C)c1 (stereo not shown) [Tolvaptan]
- effect on PKD cysts (shrinking / prevention) ([3]; PKD patients): does not shrink PKD cysts or prevent them from forming
- improve glomerular filtration rate (GFR) ([3]; PKD patients): ~1.5 ml/min/yr
- side effects ([3]; PKD patients): can damage the liver; also recorded: frequent thirst and occasional severe hepatotoxicity
- slow the growth of total kidney volume (TKV) ([3]; PKD patients): ~3 %/yr
- effect on PKD, cyst growth ([3]; patients with severe disease): 3 % year

Molecule: CCCCC[C@H](O)/C=C/[C@@H]1[C@@H](C/C=C\CCCC(=O)O)[C@H]2CO[C@@H]1C2 [U46619]
- effect (myosin): ↑ Rho-kinase

Molecule: CCCC[C@@H](C=O)NC(=O)[C@H](CC(C)C)NC(=O)OCc1ccccc1 [calpeptin]
- effect (myosin): ↑ Rho-kinase

Molecule: O=S(=O)(NCCNC/C=C/c1ccc(Br)cc1)c1cccc2cnccc12 [H-89]
- effect (myosin): ↓ PKA

Molecule: CNc1ccc2oc(C[C@H]3O[C@@]4(CC[C@H]3C)O[C@H]([C@H](C)C(=O)c3ccc[nH]3)[C@H](C)C[C@H]4C)nc2c1C(=O)O [calcium ionophore]
- effect (myosin): ↑ calmodulin

Molecule: VEGF
- increase in ECs expressing CD31 and VE-cadherin ([4]; VEGF added during differentiation, immunofluorescence): approximately 10 fold
- MCAM+ cells, share of all cells [4, 5]: 5%
- MCAM+ cells, share of cells within the six kidney clusters [4, 5]: 9.5%

Source: patent US12320800B2, “High-throughput automation of organoids for identifying therapeutic strategies” (UNIVERSITY OF WASHINGTON, priority 2018, dated 2025)
